The target in one assay is VEGFR2 (Homo sapiens, UniProt P35968). Kind of assay: Z′-LYTE kinase inhibition assay.
The target of the next assay is FGFR1 (Homo sapiens, UniProt P11362). Kind of assay: Z′-LYTE kinase inhibition assay.
For a further assay, the target named is PDGFRβ (Homo sapiens, UniProt P09619). The experiment in a line: Z′-LYTE kinase inhibition assay.
Another assay relates to HBVPs. Kind of assay: PDGF-BB-induced HBVPs proliferation. The format is cell-based. The following applies: Homo sapiens, 48 h, read-out: IC50 HBVPs.
In assay [1] the test system is NCI-H520 lung cancer xenograft. The experiment in a line: NCI-H520 lung cancer subcutaneous xenograft model. It is filed as in vivo, Balb/c nude mice.
The subject of assay [2] is A549 lung cancer xenograft. The experiment in a line: A549 lung cancer subcutaneous xenograft model. The format is in vivo, Balb/c nude mice.
The test system of a further assay is HUVECs. The experiment in a line: VEGF-induced HUVECs proliferation. The format is cell-based. As to conditions: Homo sapiens, HUVEC, 72 h, read-out: IC50 HUVECs.
For assay [3], the system named is patient-derived tumor (LI-03-0020) xenograft. The experiment in a line: Liver cancer patient-derived tumor xenograft. The format is in vivo, Balb/c nude mice. The following applies: liver cancer PDX model, 60 mg/kg oral QD.

FGFR1, sequence (P11362 22-822): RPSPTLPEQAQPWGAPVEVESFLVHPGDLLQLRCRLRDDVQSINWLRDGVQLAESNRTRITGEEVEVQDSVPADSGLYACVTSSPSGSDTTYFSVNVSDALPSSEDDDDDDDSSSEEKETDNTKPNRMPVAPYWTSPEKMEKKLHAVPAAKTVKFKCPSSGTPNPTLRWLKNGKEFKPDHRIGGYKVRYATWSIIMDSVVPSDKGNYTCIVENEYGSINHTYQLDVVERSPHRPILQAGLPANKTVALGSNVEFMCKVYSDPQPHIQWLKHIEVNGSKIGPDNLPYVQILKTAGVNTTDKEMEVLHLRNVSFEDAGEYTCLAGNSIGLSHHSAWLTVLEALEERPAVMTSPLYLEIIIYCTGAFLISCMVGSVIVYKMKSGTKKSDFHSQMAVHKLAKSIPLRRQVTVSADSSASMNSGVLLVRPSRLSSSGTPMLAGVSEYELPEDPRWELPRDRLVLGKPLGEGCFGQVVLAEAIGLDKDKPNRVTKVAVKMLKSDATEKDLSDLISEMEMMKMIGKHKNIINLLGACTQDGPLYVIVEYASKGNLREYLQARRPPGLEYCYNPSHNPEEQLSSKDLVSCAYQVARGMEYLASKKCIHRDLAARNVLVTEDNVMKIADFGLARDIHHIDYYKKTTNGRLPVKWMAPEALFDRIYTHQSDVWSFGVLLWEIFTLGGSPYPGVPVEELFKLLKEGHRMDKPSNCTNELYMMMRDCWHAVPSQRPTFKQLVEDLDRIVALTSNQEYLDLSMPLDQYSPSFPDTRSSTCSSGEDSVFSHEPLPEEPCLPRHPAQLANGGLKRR
PDGFRβ, sequence (P09619 33-1106): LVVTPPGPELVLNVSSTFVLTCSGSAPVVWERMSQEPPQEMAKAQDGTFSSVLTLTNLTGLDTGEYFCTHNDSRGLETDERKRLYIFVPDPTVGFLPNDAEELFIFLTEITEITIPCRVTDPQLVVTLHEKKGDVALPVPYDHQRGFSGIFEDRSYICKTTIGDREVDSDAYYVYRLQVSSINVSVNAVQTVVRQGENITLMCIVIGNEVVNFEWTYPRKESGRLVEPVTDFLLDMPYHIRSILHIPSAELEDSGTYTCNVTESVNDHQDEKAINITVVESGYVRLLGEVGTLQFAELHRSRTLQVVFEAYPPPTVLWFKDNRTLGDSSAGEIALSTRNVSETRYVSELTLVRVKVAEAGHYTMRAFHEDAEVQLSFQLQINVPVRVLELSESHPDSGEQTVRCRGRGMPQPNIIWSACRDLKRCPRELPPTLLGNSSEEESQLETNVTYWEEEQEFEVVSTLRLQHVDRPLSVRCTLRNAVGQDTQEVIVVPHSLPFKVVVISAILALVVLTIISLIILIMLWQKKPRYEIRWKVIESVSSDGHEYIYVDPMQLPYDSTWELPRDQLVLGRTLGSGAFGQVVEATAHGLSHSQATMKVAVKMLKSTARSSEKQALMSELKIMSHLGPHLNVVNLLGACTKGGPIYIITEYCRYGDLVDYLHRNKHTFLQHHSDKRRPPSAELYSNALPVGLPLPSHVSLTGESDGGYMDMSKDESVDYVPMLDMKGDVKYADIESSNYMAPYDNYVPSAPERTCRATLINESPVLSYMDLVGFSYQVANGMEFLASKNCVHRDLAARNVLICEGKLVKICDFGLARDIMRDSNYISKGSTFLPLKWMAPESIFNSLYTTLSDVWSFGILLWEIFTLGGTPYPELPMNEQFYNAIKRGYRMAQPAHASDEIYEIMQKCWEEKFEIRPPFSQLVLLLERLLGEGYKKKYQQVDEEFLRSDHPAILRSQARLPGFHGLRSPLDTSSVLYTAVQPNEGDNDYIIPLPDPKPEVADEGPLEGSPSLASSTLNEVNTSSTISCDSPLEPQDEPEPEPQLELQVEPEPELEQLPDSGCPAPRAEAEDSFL
VEGFR2, sequence (P35968 20-1356): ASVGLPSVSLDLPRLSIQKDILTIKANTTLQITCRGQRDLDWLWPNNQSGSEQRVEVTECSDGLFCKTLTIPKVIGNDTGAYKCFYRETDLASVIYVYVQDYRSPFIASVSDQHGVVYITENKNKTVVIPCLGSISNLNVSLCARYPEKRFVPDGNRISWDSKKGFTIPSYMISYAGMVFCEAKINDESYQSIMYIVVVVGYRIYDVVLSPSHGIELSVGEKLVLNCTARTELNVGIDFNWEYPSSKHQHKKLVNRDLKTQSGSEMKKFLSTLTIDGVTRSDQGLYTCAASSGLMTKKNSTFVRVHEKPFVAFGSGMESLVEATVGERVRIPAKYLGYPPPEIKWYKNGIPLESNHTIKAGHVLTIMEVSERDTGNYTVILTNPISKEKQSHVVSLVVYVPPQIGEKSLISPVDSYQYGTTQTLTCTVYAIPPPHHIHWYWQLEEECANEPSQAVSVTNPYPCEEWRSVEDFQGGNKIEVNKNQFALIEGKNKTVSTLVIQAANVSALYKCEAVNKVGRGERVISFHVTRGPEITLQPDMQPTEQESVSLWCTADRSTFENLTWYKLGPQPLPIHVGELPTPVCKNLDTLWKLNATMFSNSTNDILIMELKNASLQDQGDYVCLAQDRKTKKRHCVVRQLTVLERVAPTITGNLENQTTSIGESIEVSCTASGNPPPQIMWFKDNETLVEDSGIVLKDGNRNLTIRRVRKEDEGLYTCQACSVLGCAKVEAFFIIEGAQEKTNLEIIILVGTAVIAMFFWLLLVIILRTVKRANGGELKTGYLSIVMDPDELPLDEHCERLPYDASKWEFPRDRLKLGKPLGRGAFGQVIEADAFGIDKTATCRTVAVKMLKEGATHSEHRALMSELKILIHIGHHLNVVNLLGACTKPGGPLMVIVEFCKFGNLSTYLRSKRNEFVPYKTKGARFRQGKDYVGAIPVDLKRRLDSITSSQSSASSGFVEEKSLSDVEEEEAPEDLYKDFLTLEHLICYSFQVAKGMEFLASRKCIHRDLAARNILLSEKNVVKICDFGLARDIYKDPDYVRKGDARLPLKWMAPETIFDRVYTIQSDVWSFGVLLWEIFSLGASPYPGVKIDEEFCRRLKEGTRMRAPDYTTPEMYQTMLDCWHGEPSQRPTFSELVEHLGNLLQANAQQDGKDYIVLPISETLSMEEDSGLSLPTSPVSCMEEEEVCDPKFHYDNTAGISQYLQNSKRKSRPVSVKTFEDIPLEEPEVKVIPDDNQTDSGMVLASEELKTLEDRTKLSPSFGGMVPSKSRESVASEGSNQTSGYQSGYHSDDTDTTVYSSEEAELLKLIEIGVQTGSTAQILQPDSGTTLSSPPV

As for `O=C1NCOc2cc3nccc(Oc4ccc(NC(=S)NC5CC5)c(Cl)c4)c3cc21` [B3], the IC50 against VEGFR2 was found to be 0.227 µM; at FGFR1, 0.777 µM; against PDGFRβ it was 0.41 µM.

As to `COc1cc2nccc(Oc3ccc(NC(N)=S)c(Cl)c3)c2cc1C(N)=O` [C1], the IC50 is 0.0327 µM on VEGFR2, 0.436 µM against FGFR1 and 0.0772 µM on PDGFRβ.

Take `COC(=O)c1ccc2c(c1)NC(=O)/C2=C(\Nc1ccc(N(C)C(=O)CN2CCN(C)CC2)cc1)c1ccccc1` [Nintedanib, reference compound]: the IC50 in the assay with HBVPs worked out at 1.67 µM; in the assay on HUVECs, 0.041 µM. The T/C in assay [1] (100 mg/kg p.o. QD, Day 21) amounted to 45%; in assay [2] (100 mg/kg p.o. QD, Day 21) it was 26%. The TGI in assay [1] (100 mg/kg p.o. QD, Day 21) worked out at 62%; in assay [2] (100 mg/kg p.o. QD, Day 21), 80%. Besides, the “Tumor volume at Day 21” value is 585 ± 101 mm^3 in assay [1] (100 mg/kg p.o. QD, mean ± SEM) and 391 ± 43 mm^3 in assay [2] (100 mg/kg p.o. QD, mean ± SEM). For the same molecule, the “area of CD31 (tumor micro-vessel density, IHC)” value turned out to be 1.99 ± 0.04 in assay [1] (100 mg/kg, mean ± SEM, n = 3, control 4.96 ± 0.62) and 1.05 ± 0.33 in assay [2] (100 mg/kg, mean ± SEM, n = 3, control 3.38 ± 0.49).

`CNC(=O)c1cc(Oc2ccc(NC(=O)Nc3ccc(Cl)c(C(F)(F)F)c3)cc2)ccn1` [Sorafenib, reference compound]: in assay [3] (Day 21), the T/C stood at 31% and the TGI is on record as 80%. Besides, the “Tumor volume at Day 21” value in assay [3] (mean ± SEM) is 304 ± 73 mm^3.

Turning to `COc1cc2nccc(Oc3ccc(NC(=S)NC4CC4)c(Cl)c3)c2cc1C(N)=O` [WXFL-255, 4-(3-chloro-4-(3-cyclopropylthioureido)phenoxy)-7-methoxyquinoline-6-carboxamide], the IC50 was 0.0094 µM against VEGFR2, 0.188 µM at FGFR1, 0.143 µM against PDGFRβ and 0.0902 µM in the assay on HUVECs.

Values taken from article PMC7488503 (Acta Pharmaceutica Sinica. B, 2020).
